In patent publication US6914045B2, “Glycopeptide antibiotics” (Wyeth Holdings Corporation, priority 2001, dated 2005):

What was measured:
Test in all cases: in vitro antibacterial evaluation, MIC by broth dilution
Assay type in all cases: cell-based
[1] = test system: Enterococcus sp.; details: broth dilution, 18 hours at 35° C.
In short: (§1)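 Following National Committee for Clinical Laboratory Standards recommendations (M7-A2), susceptibility was measured by dilution in Muller-Hinton II […]. Bacteria were seeded at 5×10^5 CFU/mL against compound concentrations from 64 down to 0.06 μg/mL.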

[2] = test system: Escherichia coli; details: 18 hours at 35° C.
In short: as §1

[3] = test system: Staphylococcus sp.; details: broth dilution, 18 hours at 35° C.
In short: as §1

[4] = test system: Streptococcus sp.; details: broth dilution, 18 hours at 35° C.
In short: as §1

CC(C)=CCCC(C)C1OCC2OC(OC3C(CO)OC(Oc4ccc(CC5NC(=O)C(C(C)c6ccccc6)NC(=O)CNC(=O)C(CO)NC(=O)C(C(O)C6CNC(=N)N6C6OC(CO)C(O)C(O)C6O)NC(=O)C(C(O)C6CNC(=N)N6)NC5=O)cc4)C(O)C3O)C(O)C(O)C2O1 (stereo not shown) [Example 125]
8 µg/mL: MIC Staphylococcus aureus (GC 4541) [3] | MIC Staphylococcus aureus (GC 4541) ([3]; strain GC 4541)
0.25 µg/mL: MIC Streptococcus pneumoniae (ATCC 6301) ([4]; Streptococcus pneumoniae (ATCC 6301)) | MIC Streptococcus pneumoniae (GC 4565) ([4]; Streptococcus pneumoniae (GC 4565)) | MIC Streptococcus pneumoniae (ATCC 6301) ([4]; strain ATCC 6301) | MIC Streptococcus pneumoniae (GC 4565) ([4]; strain GC 4565)
1 µg/mL: MIC Streptococcus agalactiae (GC 4564) ([4]; Streptococcus agalactiae (GC 4564)) | MIC Streptococcus agalactiae (GC 4564) ([4]; strain GC 4564)
16 µg/mL: MIC Enterococcus faecium (GC 4557) ([1]; Enterococcus faecium (GC 4557)) | MIC Enterococcus faecium (GC 4557) ([1]; strain GC 4557)
0.12 µg/mL: MIC Streptococcus pneumoniae (GC 1894) ([4]; Streptococcus pneumoniae (GC 1894)) | MIC Streptococcus pneumoniae (GC 1894) ([4]; strain GC 1894)
32 µg/mL: MIC Enterococcus avium (GC 4558) ([1]; Enterococcus avium (GC 4558)) | MIC Enterococcus faecalis (ATCC 29212) ([1]; Enterococcus faecalis (ATCC 29212)) | MIC Enterococcus faecalis (GC 2242) ([1]; Enterococcus faecalis (GC 2242)) | MIC Enterococcus faecalis (GC 2691) ([1]; Enterococcus faecalis (GC 2691)) | MIC Enterococcus faecalis (GC 3059) ([1]; Enterococcus faecalis (GC 3059)) | MIC Enterococcus faecalis (GC 4552) ([1]; Enterococcus faecalis (GC 4552)) | MIC Enterococcus faecalis (GC 4553) ([1]; Enterococcus faecalis (GC 4553)) | MIC Enterococcus faecalis (GC 4554) ([1]; Enterococcus faecalis (GC 4554)) | MIC Enterococcus faecalis (GC 6189) ([1]; Enterococcus faecalis (GC 6189)) | MIC Enterococcus faecium (GC 2243) ([1]; Enterococcus faecium (GC 2243)) | MIC Enterococcus faecium (GC 4556) ([1]; Enterococcus faecium (GC 4556)) | MIC Enterococcus faecalis (ATCC 29212) ([1]; strain ATCC 29212) | MIC Enterococcus faecalis (GC 2242) ([1]; strain GC 2242) | MIC Enterococcus faecium (GC 2243) ([1]; strain GC 2243) | MIC Enterococcus faecalis (GC 2691) ([1]; strain GC 2691) | MIC Enterococcus faecalis (GC 3059) ([1]; strain GC 3059) | MIC Enterococcus faecalis (GC 4552) ([1]; strain GC 4552) | MIC Enterococcus faecalis (GC 4553) ([1]; strain GC 4553) | MIC Enterococcus faecalis (GC 4554) ([1]; strain GC 4554) | MIC Enterococcus faecium (GC 4556) ([1]; strain GC 4556) | MIC Enterococcus avium (GC 4558) ([1]; strain GC 4558) | MIC Enterococcus faecalis (GC 6189) ([1]; strain GC 6189) | MIC Escherichia coli (GC 4560) ([2]; strain GC 4560) | MIC Staphylococcus aureus (ATCC 29213) [3] | MIC Staphylococcus aureus (GC 1131) [3] | MIC Staphylococcus aureus (GC 3051) [3] | MIC Staphylococcus aureus (GC 3053) [3] | MIC Staphylococcus aureus (GC 4542) [3] | MIC Staphylococcus aureus (GC 4544) [3] | MIC Staphylococcus aureus (GC 4545) [3] | MIC Staphylococcus aureus (GC 1131) ([3]; inoculum 5×10^5 CFU/mL, strain GC 1131) | MIC Staphylococcus aureus (ATCC 29213) ([3]; strain ATCC 29213) | MIC Staphylococcus aureus (GC 3051) ([3]; strain GC 3051) | MIC Staphylococcus aureus (GC 3053) ([3]; strain GC 3053) | MIC Staphylococcus aureus (GC 4542) ([3]; strain GC 4542) | MIC Staphylococcus aureus-SMITH (GC 4543) ([3]; strain GC 4543) | MIC Staphylococcus aureus (GC 4544) ([3]; strain GC 4544) | MIC Staphylococcus aureus (GC 4545) ([3]; strain GC 4545) | MIC Staphylococcus haemolyticus (GC 4546) ([3]; strain GC 4546) | MIC Coagulase Negative Staphylococcus (GC 4547) ([3]; strain GC 4547) | MIC Coagulase Negative Staphylococcus (GC 4548) ([3]; strain GC 4548) | MIC Coagulase Negative Staphylococcus (GC 4549) ([3]; strain GC 4549) | MIC Coagulase Negative Staphylococcus (GC 4551) ([3]; strain GC 4551) | MIC Coagulase Negative Staphylococcus (GC 6257) ([3]; strain GC 6257) | MIC Staphylococcus aureus-SMITH (GC 4543) ([3]; strain SMITH GC 4543)
0.5 µg/mL: MIC Streptococcus pyogenes (GC 4563) ([4]; Streptococcus pyogenes (GC 4563)) | MIC Streptococcus pyogenes (GC 4563) ([4]; strain GC 4563)
>64 µg/mL: MIC Escherichia coli (ATCC 25922) ([2]; strain ATCC 25922) | MIC Escherichia coli (GC 4559) ([2]; strain GC 4559)
